The values that follow come from publication PMC11719499 (International Journal of Molecular Sciences, 2024).

The conditions of series [1]: for Prediction of penetration to the CNS: class from logPe in PAMPA-BBB; for BBB permeability (in words): PAMPA-BBB.
Protocol: We used the parallel artificial membrane permeability assay for BBB (PAMPA-BBB) to determine the brain permeability of compounds 1 and 12 [22]. The compounds 1 and 12 were prepared with methyl alcohol at the concentration of 4 mg/mL. These were diluted with PBS (Phosphate Buffer Saline; pH = 7.4) to obtain the donor solutions 100 μg/mL PAMPA “sandwich”, consisting of a donor 96-well microliter plate and matching filter plate coated with 5 μL of 2% lecithin/dodecane. Compounds 1 and 12 were added to the wells (150 μL/well) of the pre-coated filter, and PBS was added to the wells (300 μL/well) of the receiver plate. The filter plate was coupled with the receiver plate, and the plate couple was incubated in the thermostat at 37 °C for 16 h. After incubation, the plates were separated, and the samples from each well of both the filter plate and the receiver plate were sucked out and analyzed by HPLC.
In series [2] the test system is HM mCherry-GFP-LC3 cells. The experiment in a line: Autophagic flux assay by flow cytometry in HM mCherry-GFP-LC3 cells. The note with it: compounds at 10 µM and 40 µM, 24 h, compared to control. It counts as cell-based, human. The protocol: Consequently, the autolysosomes manifest red fluorescence. Consequently, the red fluorescence observed in the cells can be used as a marker for the formation of autolysosomes. The extent of red fluorescence can be used as an indicator of the efficiency of the flux from the autophagosome to the autolysosome. The bioactivity of all compounds on autophagic flux was evaluated using HM mCherry-GFP-LC3 cells by flow cytometry. In summary, the HM mCherryGFP-LC3 cells were cultured in 12-well plates for 24 h in DMEM (Dulbecco’s modified Eagle medium) supplemented with 10% fetal bovine serum (Gibco-BRL, 10099–141, Gaithersburg, MD, USA) in a 37 ◦C incubator with 5% CO2 at 95% humidity. Subsequently, the compounds were introduced directly to the culture medium, resulting in final concentrations of 10 µM and 40 µM. Rapamycin was used as a positive control. Twenty-four hours following the administration of the treatment, the cells were harvested and fixed using 4% paraformaldehyde (PFA). […] The data were analyzed using the FlowJo software v10 (BD Biosciences, Franklin Lakes, NJ, USA).
Data analyses were carried out by using GraphPad Prism 8 (GraphPad Software, Inc., La Jolla, CA, USA). The one-way ANOVA (analysis of variance) was performed using Dunnett’s post hoc test for comparison between the treated group and control group, and the values were expressed as mean ± standard deviation (SD). […]
A general note: In flow cytometry, cells or beads pass a laser one at a time.

“Also recorded” adds a separate entry of the source.

Take `NC(=O)N1c2ccccc2C=Cc2ccccc21` [Carbamazepine, carbamazepine, reference compound]: in series [1], the “Prediction of penetration to the CNS” value is recorded as “CNS ++ (++ is logPe > −5.0)”.

Turning to `C=C1C(OC(=O)C(C)C)C(O)C(OC(=O)c2ccccc2)C(C)(C)C=CC(C)C(OC(C)=O)C2(O)CC(C)(OC(C)=O)C(OC(=O)c3ccccc3)C2C1OC(C)=O` (centres unmarked) [Compound 1, Euphjatrophane H], in series [2], the “bioactivity towards autophagic flux” value is reported as “most promising activity; also recorded: significant activity on autophagic flux”. In series [1], the “BBB permeability (in words)” value is listed as “relatively high BBB permeability; also recorded: ability to penetrate the blood–brain barrier (BBB)” and the “Prediction of penetration to the CNS” value is reported as “CNS ++ (++ is logPe > −5.0)”.

Consider `C=C1[C@H](OC(=O)/C(C)=C/C)[C@@H](OC(C)=O)[C@@H](OC(C)=O)C(C)(C)/C=C/[C@H](C)[C@@H](OC(C)=O)[C@@]2(O)C[C@@](C)(OC(C)=O)[C@H](OC(=O)c3ccccc3)[C@@H]2[C@H]1OC(C)=O` [Compound 12, euphpepluone F], for which the “bioactivity towards autophagic flux” value in series [2] is on record as “most promising activity; also recorded: significant activity on autophagic flux”. Also, in series [1], the “BBB permeability (in words)” value is “relatively high BBB permeability; also recorded: ability to penetrate the blood–brain barrier (BBB)” and the “Prediction of penetration to the CNS” value was “CNS + (+ is logPe > −6.0)”.

In the case of `CC(C)NCC(O)COc1cccc2ccccc12` (centres unmarked) [Propranolol, propranolol, reference compound], the “Prediction of penetration to the CNS” value in series [1] is given as “CNS ++ (++ is logPe > −5.0)”.
